Test results as given in patent US20080254101A1, “PILOCARPINE COMPOSITIONS AND METHODS OF USE THEREOF” (priority 2004, published 2008).

What was measured:
[1] = Ionization of pilocarpine (pKa, pH = pKa + Log10 formula); type: physicochemical; conditions: at a pH of from about 7.6 to about 8.6, using the formula
Excerpt: Conversion of the ionized form to the un-ionized form for pilocarpine is related to pH according to the formula: pH=pKa+Log10 (un-ionized concentration/ionized concentration). When the pH is the same as the pKa, equimolar concentrations of the un-ionized form and ionized form exist. For basic compounds such as pilocarpine, when the pH is one unit higher than the pKa, the ratio of the un-ionized form to the ionized form is 91:9. Similarly, when the pH is two units higher than the pKa, the ratio of un-ionized form to the ionized form is […]. As noted above, the un-ionized form is lipophilic and, therefore, more capable of passing through mucous membranes such as the oral mucosa than the ionized form, which is lipophobic in nature. Accordingly, increasing the pH of the saliva favors conversion of the ionized form into the un-ionized form for basic compounds such as pilocarpine, and the final pH can be determined by making use of the above formula. For pilocarpine, the tri-substituted nitrogen in the imidazole group controls the extent of ionization and the degree of lipophilicity in any given medium. Typically, the nitrogen in the imidazole group imparts a pKa of about 6.6 to the molecule at 37° C.

[2] = at 37° C., nitrogen in the imidazole group; cited from earlier work

conversion to an un-ionized form [1]: about 90%
Structure (SMILES): CC[C@@H]1C(=O)OC[C@@H]1Cc1cncn1C [pilocarpine]
pKa [2]: about 6.6
